Measured values published in US20090137544A1 (priority 2006, published 2009).
Where two headings read alike, the source gives them in different places.

Tests used:
[1] = test system: Hedgehog signaling activity; assay: Gli-luciferase reporter assay in rat hepatic stellate cell line; assay type: cell-based; conditions: for CONCENTRATION REGION restoring Hedgehog signaling activity / PREFERRED CONCENTRATION restoring Hedgehog signaling activity: alcohol-treated hepatic stellate cells; for efficacy order on hedgehog signaling: fish and rat liver cell line
Description: The Gli-luciferase reporter assay was performed in duplicated experiments of a rat hepatic stellate cell line, […]. Briefly, […] cells, were grown in DMEM medium supplemented with 10% fetal bovine serum and penicillin and streptomycin (100 U/ml). At 40-50% confluency, cells were transfected with Gli-BS-Firefly luciferase plasmid (60 ng nl^−1) and Renilla luciferase plasmid ([…], pRL-TK, Promega) (concentration ratio 10:1) by using FuGENE 6 Transfection Reagent (Roche Applied Science). […] Two hours later, the medium was added to different drugs (20α-OHC, 22(S)-OHC, 25-OHC and cholesterol). After 16 hrs, the cells were washed three times in ice-cold PBS, and then were assayed by Dual/Luciferase Reporter Assay System (Promega). Activity of the Firefly luciferase reporter was normalized to the activity of a Renilla luciferase internal control for transfection efficiency.

zebra fish embryos [2] = assay: Zebra fish embryo exposure to alcohol, cyclopamine or AY-9944: survival and phenotype; conditions: for developmental malformations of treated embryos: transient treatment during gastrulation, alcohol 2%, cyclopamine 10.0 μM, AY-9944 7.5 μM
Shh [3] = conditions: alcohol-exposed embryos, Western blot
Description: Total cellular protein was isolated as previously described^51 and cell membrane proteins were isolated using the Mem-PER(r) Eukaryotic Membrane Protein Extraction Reagent Kit (Pierce Biotechnology). Proteins (4o μg) in Laemmli buffer were then separated by 12% Tris-HCl SDS-polyacrylamide gel electrophoresis and transferred to a PVDF membrane. Membranes were blocked, washed, and exposed to primary antibodies (Santa Cruz Biotechnology) against Shh (N-19, Catalog number: sc-1194; dilution: 1:2.500) and β-actin (1:1.000). Signals were detected by Anti-goat HRP antibody (1:10.000, Amersham).

Shh secretion = conditions: 3 hours, HSC 8B cells, Elisa
Description: Applicant analyzed proteins collected from the HSC 8B culture medium for Shh ligand content using two independent methods: Western blot analysis and Elisa assay. […] The cultures were incubated for an additional 3 hours, and culture medium was then harvested and concentrated for protein isolation.

zebra fish embryos [4] = conditions: zebrafish, in vivo
[5] = alcohol-exposed embryos
Description: Upon esterified reaction, then the cholesterol ester can be transported from the embryonic yolk to the body. […] The fluorescent molecule, Filipin can selectively bind to free cholesterol, but not cholesterol ester; in other hand, the dye of oil red O identifies neutral lipids molecules such as cholesterol ester, but not polarized free cholesterol. First, applicant quantitatively analyzed the free cholesterol by whole mount in situ filipin staining.

[6] = test system: Hh-responsive Gli-BS luciferase reporter; assay: Gli-luciferase reporter assay in embryos; assay type: in vivo, zebra fish
Description: The Gli-luciferase reporter assay was performed in replicate experiments of pooled embryos (n=15). Briefly, zebra fish embryos at the 1-2 cell stage were microinjected with 0.5 nl of Gli-BS-Firefly luciferase plasmid (60 ng nl^−1) and Renilla luciferase plasmid (60 ng nl^−1, pRL-TK, Promega). Reporter activity was determined by using the Dual-Luciferase Reporter Assay System (Promega). Activity of the Firefly luciferase reporter was normalized to the activity of a Renilla luciferase internal control for transfection efficiency.
(§1) Embryos were microinjected at 1-2 cell stage with 0.2 nl of 5 μg μl^−1 ([…]) cholesterol (BioVision Inc.) with or without the two plasmids for the Gli-luciferase reporter assay. […] At 48 hpf embryos were analyzed.

Shh [7] = test system: Shh
[8] = alcohol exposure during gastrulation, dose-related
Description: Cholesterol content was then measured by the Arnplex Red Cholesterol Assay Kit (Invitrogen).

Caveolin-1/Shh complex = conditions: alcohol 0.3, 0.5, 0.6, 0.8% w/v for 2 hours
Description: First, as described in FIG. 6, cellular proteins isolated by non-ionic detergent resistant cellular extraction were fractionalized by density gradient ultracentrifugation. […] Fractions 7 through 9 from the density gradient were pooled and used in the immunoprecipitation assay.

Shh [9] = conditions: 0.6% alcohol (w/v, 109 mM) for 30 minutes
Shh [10] = test system: Shh; remark: listed apart in the source
zebra fish embryos [11] = assay: Cholesterol microinjection rescue of alcohol-exposed embryos; assay type: in vivo; conditions: 48 hpf
Description: as §1

[12] = test system: Shh target genes Ptc, Gli1, Nkx2.2; conditions: real-time quantitative PCR
Description: Total RNA was extracted from embryos (n=10) with RNeasy kits (Qiagen). RT-PCR were performed using primers (information listed in following table) as previously described.^52

zebra fish embryos [13] = conditions: 2.0% alcohol for 6 hours from 4.3 hpf, no supplement; 72 hpf
[14] = chronic alcohol feeding versus both control groups, p<0.001

CC(C)CCC[C@](C)(O)[C@H]1CC[C@H]2[C@@H]3CC=C4C[C@@H](O)CC[C@]4(C)[C@H]3CC[C@@]21C [20α-Hydroxycholesterol, 20-hydroxycholesterol]
CONCENTRATION REGION restoring Hedgehog signaling activity [1]: 0.1 to 100 µM
PREFERRED CONCENTRATION restoring Hedgehog signaling activity [1]: 1 to 5 µM
efficacy order on hedgehog signaling [1]: efficacy order is 25-OHC, 22(S)-OHC, cholesterol, 20α-OHC and followed with squalene

CC1=C2C[C@H]3[C@@H](CC=C4C[C@@H](O)CC[C@@]43C)[C@@H]2CC[C@]12O[C@@H]1C[C@H](C)CN[C@H]1[C@H]2C [cyclopamine, 11-deoxojervine, reference compound]
developmental malformations of treated embryos (zebra fish embryos [2]): HPE and partial cyclopia, as well as underdevelopment of the craniofacial bones and muscles, and failure of the heart tube to loop

2,6,10,15,19,23-Hexamethyl-2,6,20,24,28,22-Tetracosahexaene [Squalene]
CONCENTRATION REGION restoring Hedgehog signaling activity [1]: 0.1 to 100 µM
PREFERRED CONCENTRATION restoring Hedgehog signaling activity [1]: 1 to 10 µM
efficacy order on hedgehog signaling [1]: efficacy order is 25-OHC, 22(S)-OHC, cholesterol, 20α-OHC and followed with squalene

CCO [Alcohol, ethanol]
Shh in cellular membrane protein fraction (Shh [3]): progressive loss of Shh from the cellular membrane protein fraction
decrease in Shh secretion (Shh secretion; 0.3% (55 mM) alcohol): 1.2 fold
decrease in Shh secretion (Shh secretion; 0.6% (109 mM) alcohol): 4.2 fold
decrease in Shh secretion (Shh secretion; 0.8% (136 mM) alcohol): 5.5 fold
embryos alive at 48 hpf (zebra fish embryos [4]): 10%
embryos alive with minimal abnormalities at 48 hpf (zebra fish embryos [4]): 18%
embryos alive with normal phenotypes at 48 hpf (zebra fish embryos [4]): 72.3%
living embryos phenotypically normal at 48 hpf (zebra fish embryos [4]): 2.6%
cholesterol ester (oil red O staining) in embryo yolk and body [5]: dramatic decrease of cholesterol ester in the embryonic yolk, with little or no change in its concentration in the embryonic body
free cholesterol (filipin staining) in embryo body and yolk [5]: large decrease in cholesterol concentration in the embryonic body, but not in the embryonic yolk
Gli-BS luciferase activity in embryos ([6]; following alcohol exposure (0.25-2.0%)): decreased in a dose-related fashion
Shh distribution pattern relative to ER marker (Shh [7]; 0.6% (w/v) alcohol for one hour): diffuse, homogeneous distribution pattern
punctate co-localized Caveolin-1/Shh particles (Shh [7]; alcohol 0.4% and 0.8% (w/v) for thirty minutes): dramatically decreased in an alcohol dose dependent manner
total cholesterol content of the embryos [8]: decrease in the total cholesterol content
amount of Caveolin-1 in the lipid raft fractions (Caveolin-1/Shh complex): did not affect the amount of Caveolin-1
amount of Shh in Caveolin-1 containing lipid raft fractions (fractions 7-9) (Caveolin-1/Shh complex): decreased in an alcohol dose-dependent manner
density gradient distribution of Shh (Shh [9]): restricted to fractions 12 through 17
co-localization of Shh and lipid raft (Shh [10]; alcohol 0.25% v/v for 5 minutes): disrupted
Shh localization (Shh [10]; alcohol 1% for one hour): almost all of the Shh protein was accumulated inside of the liver stellate cells
survival rate at 48 hpf (zebra fish embryos [2]; 0.25% alcohol for 6 h, late blastula-gastrula stage (second window)): over 90%
embryos survived to 48 hpf (zebra fish embryos [2]; 0.25% alcohol, first exposure window (1 to 2 cell stages to 3 hpf)): < 40%
embryos that failed to survive to 48 hpf (zebra fish embryos [2]; 0.25% alcohol, second exposure window): < 10%
embryos survived through 48 hpf with abnormal morphology (zebra fish embryos [2]; 2% alcohol, second exposure window): 84%
embryos for which exposure was lethal (zebra fish embryos [2]; 2% alcohol, second exposure window, 48 hpf): 13%
embryos with FASD-like phenotypes (zebra fish embryos [11]; alcohol-exposed, unsupplemented embryos): 83.3%
change in expression of Ptc or Gli1 ([12]; 0.25% alcohol): no significant change
decrease of Nkx2.2 expression ([12]; 0.25% alcohol): about 50%
Shh transcription ([12]; alcohol concentrations higher than 1.0%): decreased
embryos developed relatively normal on gross morphology (zebra fish embryos [13]): 15%
Hedgehog signaling (Gli binding site derived luciferase activities) in hepatic stellate cells ([1]; alcohol 0.25, 0.5, 0.75 and 1.0% v/v versus no alcohol (A0)): decrease Hedgehog signaling activates
ratio of cholesterol ester to total cholesterol in plasma [14]: significantly decreased

C[C@H](CCCC(C)(C)O)[C@H]1CC[C@H]2[C@@H]3CC=C4C[C@@H](O)CC[C@]4(C)[C@H]3CC[C@]12C [25-hydroxycholesterol, 5-cholestene-3b,25-diol]
CONCENTRATION REGION restoring Hedgehog signaling activity [1]: 0.1 to 100 µM
PREFERRED CONCENTRATION restoring Hedgehog signaling activity [1]: 5 to 15 µM
efficacy order on hedgehog signaling [1]: efficacy order is 25-OHC, 22(S)-OHC, cholesterol, 20α-OHC and followed with squalene

Cl.Cl.Clc1ccccc1CNC[C@H]1CC[C@H](CNCc2ccccc2Cl)CC1 [AY-9944, trans-1,4 bis-(2-dichlorobenzylaminomethyl) cyclohexane dihydrochloride, reference compound]
developmental malformations of treated embryos (zebra fish embryos [2]): HPE and partial cyclopia, as well as underdevelopment of the craniofacial bones and muscles, and failure of the heart tube to loop

CC(C)CCC[C@@H](C)[C@H]1CC[C@H]2[C@@H]3CC=C4C[C@@H](O)CC[C@]4(C)[C@H]3CC[C@]12C [Cholesterol, 10,13-dimethyl-17-(6-methylheptan-2-yl)-2,3,4,7,8,9,11,12,14,15,16,17-dodecahydro-1H-cyclopenta[a]phenanthren-3-ol]
Gli-BS reporter activity in cholesterol-supplemented, alcohol-exposed embryos ([6]; cholesterol 10 pg microinjected at 1-2 cell stage, various alcohol concentrations during gastrulation): preserved at all doses of alcohol exposure
embryos that appeared grossly normal (zebra fish embryos [11]; cholesterol-supplemented (10 pg), alcohol-exposed embryos): 94.8%
CONCENTRATION REGION restoring Hedgehog signaling activity [1]: 1 to 50 µM
PREFERRED CONCENTRATION restoring Hedgehog signaling activity [1]: 1 to 20 µM
efficacy order on hedgehog signaling [1]: efficacy order is 25-OHC, 22(S)-OHC, cholesterol, 20α-OHC and followed with squalene

CC(C)CCC(O)[C@@H](C)[C@H]1CC[C@H]2[C@@H]3CC=C4C[C@@H](O)CC[C@]4(C)[C@H]3CC[C@]12C (stereo partly drawn) [22(S)-Hydroxycholesterol, 5-cholestene-3b,22-diol]
CONCENTRATION REGION restoring Hedgehog signaling activity [1]: 0.1 to 100 µM
PREFERRED CONCENTRATION restoring Hedgehog signaling activity [1]: 1 to 5 µM
efficacy order on hedgehog signaling [1]: efficacy order is 25-OHC, 22(S)-OHC, cholesterol, 20α-OHC and followed with squalene
